One may read the pIC50 as −log10 of the IC50, conventionally taken in molar units.

pIC50: −log10 of the molar value.

The results in this text go back to ChEMBL document CHEMBL5512605, “Targeted regulated cell death with small molecule compounds in colorectal cancer: Current perspectives of targeted therapy and molecular mechanisms” (Eur J Med Chem, 2024).

For experiment [1], the system named is HCT-116. Description: Antiproliferative activity against human HCT-116 cells expressing wild type p53 measured after 48 hrs by MTT assay. In kind it is functional, cell-based. The conditions noted are these: HCT-116, 48 h. A general note: Formazan colour is commonly taken as a measure of viable cells.
Experiment [2] concerns HCT-116. Description: Antiproliferative activity against human HCT-116 cells. The note with it: for pIC50: Homo sapiens, HCT-116. The class given is functional, cell-based.
Experiment [3] has as its system SW480. As to the kind of experiment: Antiproliferative activity against human SW480 cells. The class given is functional, cell-based.
Experiment [4] has as its system LoVo. As to the kind of experiment: Antiproliferative activity in human LoVo cells incubated for 72 hrs by MTT assay. In kind it is functional, cell-based.
Experiment [5] has as its system LoVo. As to the kind of experiment: Antiproliferative activity against human LoVo cells measured upto 72 hrs by CCK-8 method. In kind it is functional.
The test system of experiment [6] is SW480. As to the kind of experiment: Antiproliferative activity against human SW480 cells measured upto 72 hrs by CCK-8 method. In kind it is functional.
Experiment [7] relates to HCT-116. As to the kind of experiment: Antiproliferative activity against human HCT-116 cells measured upto 72 hrs by CCK-8 method. In kind it is functional.
Experiment [8] deals with HCT-116. Description: Antiproliferative activity against human HCT-116 cells assessed as inhibition of cell growth measured after 24 hrs by CellTiter 96 Aqueous One Solution Cell Proliferation Assay. In kind it is functional, cell-based. The conditions noted are these: HCT-116, 24 h.
Experiment [9] concerns SW480. As to the kind of experiment: Antiproliferative activity against human SW480 cells assessed as inhibition of cell growth measured after 24 hrs by CellTiter 96 Aqueous One Solution Cell Proliferation Assay. In kind it is functional, cell-based. The conditions noted are these: SW480, 24 h.
Experiment [10] concerns HT-29. As to the kind of experiment: Cytotoxicity against human HT-29 cells measured after 24 hrs by MTT assay. The class given is functional, cell-based. The conditions noted are these: HT-29, 24 h.
For experiment [11], the system named is HCT-116. Description: Cytotoxicity against human HCT-116 cells measured after 24 hrs by MTT assay. The class given is functional, cell-based. The conditions noted are these: HCT-116, 24 h.
Experiment [12] deals with HT-29. Description: Antiproliferative activity in human HT-29 cells incubated for 48 hrs by MTT assay. The class given is functional, cell-based. The note with it: HT-29, 48 h.
The test system of the next experiment is CT26. As to the kind of experiment: Antiproliferative activity against mouse CT26 cells assessed as inhibition of cell viability. The class given is functional, cell-based.
For experiment [13], the system named is HCT-116. As to the kind of experiment: Antiproliferative activity against human HCT-116 cells assessed as inhibition of cell viability. The class given is functional, cell-based.
The subject of experiment [14] is SW-620. Description: Antiproliferative activity against human SW620 cells. The class given is functional, cell-based.
Another experiment concerns DLD-1. Description: Antiproliferative activity against human DLD-1 cells assessed as inhibition of cell growth measured after 48 hrs by CCK-8 method. In kind it is functional, cell-based. The note with it: DLD-1, 48 h.
Experiment [15] has as its system SW480. Description: Antiproliferative activity against human SW480 cells assessed as inhibition of cell growth measured after 48 hrs by CCK-8 method. The class given is functional, cell-based. The note with it: SW480, 48 h.
Experiment [16] concerns HT-29. As to the kind of experiment: Antiproliferative activity against human HT-29 cells assessed as inhibition of cell growth measured after 48 hrs by CCK-8 method. In kind it is functional, cell-based. The conditions noted are these: HT-29, 48 h.
The test system of experiment [17] is HCT-116. Description: Antiproliferative activity against human HCT-116 cells assessed as inhibition of cell growth measured after 48 hrs by CCK-8 method. The conditions noted are these: HCT-116, 48 h. The class given is functional, cell-based.
Experiment [18] has as its system SW-620. As to the kind of experiment: Antiproliferative activity against human SW620 cells assessed as inhibition of cell growth measured after 48 hrs by CCK-8 method. The note with it: SW-620, 48 h. The class given is functional, cell-based.
Experiment [19] concerns SW-620. Description: Cytotoxicity against human SW620 cells. In kind it is functional, cell-based. The conditions noted are these: Homo sapiens, SW-620.
In experiment [20] the test system is HCT-116. As to the kind of experiment: Cytotoxicity against human HCT-116 cells. The class given is functional, cell-based. The conditions noted are these: Homo sapiens, HCT-116.
A further experiment deals with SW 1116. As to the kind of experiment: Antiproliferative activity against human SW 1116 cells incubated for 24 hrs by CCK-8 method. In kind it is functional, cell-based.
Experiment [21] has as its system SW480. As to the kind of experiment: Antiproliferative activity against human SW480 cells incubated for 24 hrs by CCK-8 method. The class given is functional, cell-based.
Another experiment relates to Caco-2. Description: Antiproliferative activity against human Caco-2 cells measured after 24 hrs by MTT assay. The class given is functional, cell-based. The conditions noted are these: Caco-2, 24 h.
Experiment [22] relates to SW-620. Description: Antiproliferative activity against human SW620 cells measured upto 60 hrs by MTS assay. The class given is functional.
In experiment [23] the test system is SW480. Description: Cytotoxicity against human SW480 cells assessed as inhibition of cell proliferation measured after 48 hrs by MTT assay. In kind it is functional, cell-based. The conditions noted are these: time 48 hrs.

Consider `Cc1c(CO)c(CO)c2n1[C@H](c1ccccc1)SC2`, for which the pIC50 in the experiment with HCT-116 [1] was 6.01. On to `COc1ccc(-c2cc(=O)c3c(O)c(OC)c(O)c(OC)c3o2)cc1` [NEVADENSIN], for which the pIC50 in the experiment on HCT-116 [2] is 5.30; with SW480 [3] (Homo sapiens, SW480), 5.30. On to `COc1cc(C[C@@H](CO[C@@H]2O[C@H](CO)[C@@H](O)[C@H](O)[C@H]2O)[C@H](CO[C@@H]2O[C@H](CO)[C@@H](O)[C@H](O)[C@H]2O)Cc2ccc(O)c(OC)c2)ccc1O`, for which the negative logarithm of the IC50 (pIC50) with HCT-116 [2] is 4.61. `O=C1/C(=C/c2ccccc2Br)CSC/C1=C\c1ccccc1Br` gave a pIC50 with LoVo [4] of 6.00. For `C[C@H]1[C@H](C)CC[C@]2(C(=O)O[C@@H]3O[C@H](CO[C@@H]4O[C@H](CO)[C@@H](O[C@@H]5O[C@@H](C)[C@H](O)[C@@H](O)[C@H]5O)[C@H](O)[C@H]4O)[C@@H](O)[C@H](O)[C@H]3O)CC[C@]3(C)C(=CC[C@@H]4[C@@]5(C)C[C@@H](O)[C@H](O)[C@@](C)(CO)[C@@H]5CC[C@]43C)[C@H]12`, the IC in the experiment on LoVo [5], with SW480 [6] and in the experiment on HCT-116 [7] was 2 µM in each case. With `C[C@@H]1CC[C@]2(C(=O)O)CC[C@]3(C)C(=CC[C@@H]4[C@@]5(C)CC[C@H](O[C@@H]6OC[C@H](O)[C@H](O)[C@H]6O)C(C)(C)[C@@H]5CC[C@]43C)[C@@H]2[C@]1(C)O`, the pIC50 in the experiment on HCT-116 [8] was 4.97; in the experiment on SW480 [9], 4.95. Take `C[C@@H]1CC[C@@]2(OC1)O[C@H]1C[C@H]3[C@]4(C)CC=C5C[C@@H](O[C@@H]6O[C@H](CO)[C@@H](O[C@@H]7O[C@@H](C)[C@H](O[C@@H]8O[C@@H](C)[C@H](O)[C@@H](O)[C@@H]8O)[C@@H](O)[C@H]7O)[C@H](O)[C@H]6O[C@@H]6O[C@@H](C)C(O)[C@@H](O)[C@H]6O)CC[C@]5(C)[C@H]4CC[C@]3(C)[C@H]1[C@@H]2C` (stereo not given in full): the negative-log IC50 (pIC50) in the experiment on HT-29 [10] is 5.72; in the experiment on HCT-116 [11], 5.43. Compound `C=CCCCOc1cc(O)c2c(c1)OC(c1ccc(O)cc1)CC2=O` (stereo not given) gave a pIC50 in the experiment with HT-29 [12] of 4.63. In the case of `C/C=C1/CN(C)[C@H]2Cc3c([nH]c4ccccc34)[C@H](c3cc4[nH]c5c(c4cc3OC)CCN3C[C@@H]4C[C@H](CC)[C@H]3[C@@]5(C(=O)OC)C4)C[C@@H]1C2C(=O)OC` (stereo not given in full), the pIC50 is 5.86 in the experiment with CT26 and 5.39 with HCT-116 [13]. In the case of `CC(/C=C/C(=O)NO)=C\[C@@H](C)C(=O)c1ccc(N(C)C)cc1` [TRICHOSTATIN], the negative-log IC50 (pIC50) in the experiment on SW-620 [14] is 5.61. Consider `CCc1ccc2c3[nH]c4ccccc4c3cc[n+]2c1`, for which the pIC50 with DLD-1 was 4.97; in the experiment with SW480 [15], 4.81; in the experiment on HT-29 [16] it was 5.02; in the experiment with HCT-116 [17] it was 5.09; in the experiment on SW-620 [18], 4.98. On to `O=C1C2C3C=CC(C4CC34)C2C(=O)N1c1ccc(Cc2ccncc2)cc1` (stereo not given), for which the IC in the experiment with HCT-116 [2] and with SW480 [3] was 10 µM each time.

As to `C=CC(=O)Nc1ccccc1Nc1nc(Nc2ccc(CN3CCC(C(=O)NO)CC3)cc2)ncc1Cl`, the pIC50 with SW-620 [19] was 6.51; with HCT-116 [20], 6.87. For IVERMECTIN, the values for the negative logarithm of the IC50 (pIC50) with SW 1116 and in the experiment on SW480 [21] were 5.20 and 4.81, respectively. For `CC[C@@H](C(=O)[C@@H](C)[C@@H](O)[C@H](C)[C@@H]1O[C@@H]([C@@H](CC)C(=O)O)CC[C@@H]1C)[C@H]1O[C@]2(C=C[C@@H](O)[C@]3(CC[C@@](C)([C@H]4CC[C@](O)(CC)[C@H](C)O4)O3)O2)[C@H](C)C[C@@H]1C` [SALINOMYCIN], the pIC50 in the experiment with Caco-2 is 4.80.

In turn, `COc1cc2c(=O)oc3c(OC)c(O)cc4c(=O)oc(c1OC)c2c34` gave an IC in the experiment with SW-620 [22] of 15 µM. Regarding `CC(C)c1cccc(C(C)C)c1O` [PROPOFOL], the IC with SW480 [23] came to 12.5 µM.
